Entries after “also recorded” stand apart in the source; their conditions may differ.
Key:
PC3 cells = assay: Cell cycle analysis (propidium iodide), SC21, PC3; assay type: cell-based, human; settings: 72 hours
Procedure: (§1) FIG. 17 depicts flow cytometric analysis of the cell cycle profiles of DU145, PC3, MDA-MB-435, and HEY cells treated with SC21. […] SC21 induced a G0/G1 phase arrest in DU145 and MDA-MB-435 cells and S phase arrest in PC3 and HEY cells.
(§2) Cell cycle perturbations induced by SC21 and camptothecin (CPT) were analyzed by propidium iodide DNA staining. Briefly, exponentially growing PC3 and DU145 cells were treated with different doses of the drug for 24, 48, and 72 hours. At the end of each treatment time, cells were collected and washed with PBS after a gentle centrifugation at 200×g for 5 minutes. Cells were thoroughly resuspended in 0.5 mL of PBS and fixed in 70% ethanol for at least 2 hours at 4° C. Ethanol-suspended cells were then centrifuged at 200×g for 5 minutes and washed twice in PBS to remove residual ethanol. For cell cycle analysis, the pellets were suspended in 1 mL of PBS containing 0.02 mg/mL of propidiumiodide, 0.5 mg/mL of DNase-free RNase A and 0.1% of Triton X-100 and incubated at 37° C. for 30 minutes. Cell cycle profiles were obtained using a FACScan flowcytometer (Becton Dickinson, San Jose, Calif.) and data were analyzed by ModFit LT software (Verity Software House, Inc., Topsham, Me.).
(§3) It was noteworthy that SC21 induced S phase arrest in PC3 and HEY cell lines (FIG. 17).

DU145 cells = assay: Cell cycle analysis (propidium iodide), SC21, DU145; assay type: cell-based, human; settings: 72 hours of exposure, IC50
Procedure: as §1
as §2, with “Me.). […]” for “Me.).”

PC3 xenografts = assay: PC3 human prostate cancer xenograft in athymic nude mice; assay type: in vivo
Procedure: FIG. 20. (A) is a schematic outline of tumor growth and dosing in PC3 mice xenografts. […] Athymic nude mice implanted with PC3 cells were treated with the indicated concentration of SC21 through daily i.p. administration for 5 d. Tumor growth was monitored for 5 wks. Values represent the tumor weight (mean±SD) for each group. (C) depicts dose-response to SC21 in the PC3 xenograft. Values represent the % T/C from each treatment group on the last day of measurement (after 5 wks); bars,±SD.
Fifty male athymic nude (nu/nu) mice (Charles River Laboratories, Wilmington, Mass.) were used for in vivo testing. The animals were fed ad libitum and kept in air conditioned rooms at 20±2° C. with a 12-hour light-dark period. Animal care and manipulation were in agreement with the University of Southern California Institutional Guidelines, which are in accordance with the Guidelines for the Care and Use of Laboratory Animals.
PC3 cells from in vitro cell culture were inoculated s.c. in both flanks of athymic nude mice (2×10^6 cells/flank) under aseptic conditions. Tumor growth was assessed by biweekly measurement of tumor diameters with a Vernier caliper (length×width). Tumor weight was calculated according to the formula: TW (mg)=tumor volume (mm^3)=d^2×D/2, where d and D are the shortest and longest diameters, respectively. Cells were allowed to grow to an average volume of 100 mm^3. Animals were then randomly assigned for control and treatment groups, to receive control vehicle or SC21 (0.3 and 3 mg/kg, dissolved in isotonic saline solution) via i.p. injections once a day for 5 days. Treatment of each animal was based on individual body weight. After 5 days of treatment, the tumor volumes in each group were measured […]. Treated animals were checked daily for treatment toxicity/mortality. The percentage of tumor growth inhibition was calculated as % T/C=100× (mean TW of treated group/mean TW of control group).
The in vivo efficacy of SC21 was evaluated in nude mice inoculated with human prostate PC3 cells. Animals were treated with daily i.p. injections of saline (controls) and SC21 at 0.3 or 3 mg/kg. After 5 days of dosing, the drug treatment was discontinued and the animals were monitored biweekly for 5 weeks.

HEY cells = assay: Cell cycle analysis (propidium iodide), SC21, HEY; assay type: cell-based, human; settings: 72 hours
Procedure: as §1, §2, §3

MDA-MB-435 xenografts = assay: Nude mice xenograft model of human breast MDA-MB-435 cells; assay type: in vivo
Procedure: FIG. 3. (A) is a schematic outline of tumor growth and dosing in xenograft models. […] Tumor growth was monitored for five weeks. Values represent the median tumor weight for each group.
After five-days of dosing, the drug treatment was discontinued and the animals were monitored bi-weekly for five weeks.
For statistical analysis, the % T/C value was calculated on the last day of dosing and is graphed for all of the treatment groups (FIG. 3C).
To evaluate the extent of tumor necrosis after drug treatment tumor samples were collected from control and treated mice on day 70.

RPMI-8226 leukemia cells = assay: Sensitivity of various cancer cells to SC144, RPMI-8226; assay type: cell-based; settings: Homo sapiens
From the text: (§4) The studies were expanded to other cell lines. […] Subnanomolar to low nanomolar potency was also observed in HCT-116 and HT29 colon cancer cell lines (Table 2).

UACC-257 melanoma cells = assay: Sensitivity of various cancer cells to SC144, UACC-257; assay type: cell-based; settings: Homo sapiens
From the text: as §4

[1] = system: HOP-92 non-small cell lung cancer cells; assay: Sensitivity of various cancer cells to SC144, HOP-92; assay type: cell-based; settings: Homo sapiens
From the text: as §4

MDA-MB-435 cells = assay: Annexin V/PI apoptosis analysis, SC144 and CPT; assay type: cell-based, human; settings: 48 h; IC80
From the text: Cells were stained with annexin V/PI and analyzed by flow cytometry. Cells in the bottom left quadrant of each panel (Annexin V-negative, PI-negative) are viable, whereas cells in the bottom right quadrant (Annexin V-positive, PI-negative) are in the early stages of apoptosis, and cells in the top right quadrant (Annexin V-positive, PI-positive) are in later stages of apoptosis and necrosis.
An early event in apoptotic cell death is the translocation of the phosphatidyl-serine residues to the outer part of the cell membrane. This event precedes nuclear breakdown, DNA fragmentation, the appearance of most apoptosis-associated molecules, and is readily measured by annexin V binding assay. By this method, SC144 was compared with CPT.

[2] = system: EKVX non-small cell lung cancer cells; assay: Sensitivity of various cancer cells to SC144, EKVX; assay type: cell-based; settings: Homo sapiens
From the text: as §4

[3] = 0.3 or 3 mg/kg daily i.p. for 5 days

O=C(NNC(=O)c1ccccc1O)C1=CC2C=CC=CC2C=C1O (stereo not drawn) [SC21]
accumulation in S phase (PC3 cells): 52%
cells retained in G0/G1 phase (DU145 cells): 65%
average weight of mice (PC3 xenografts; 0.3 mg/kg of SC21): 32.1 ± 1.92 g
average weight of mice (PC3 xenografts; 3.0 mg/kg of SC21): 33.3 ± 1.89 g
tolerability, drug-related deaths, body weight (PC3 xenografts; [3]): well-tolerated and did not result in any drug-related deaths and changes in body weight
tumor burden / tumor growth (PC3 xenografts; [3]): significantly reduced tumor burden; also recorded: Significant reduction in tumor growth
accumulation in S phase (HEY cells): 69%

O=C(NNc1nc2cc(F)ccc2n2cccc12)c1cnccn1 [SC144, Pyrazine-2-carboxylic acid N′-(7-fluoro-pyrrolo[1,2-a]quinoxalin-4-yl)-hydrazide]
organ toxicity (H&E staining of kidney, liver, heart tissues) (MDA-MB-435 xenografts; 4 mg/kg): no damage in these organs; also recorded: does not exhibit organ toxicity
reduced tumor growth (MDA-MB-435 xenografts; 4 mg/kg daily i.p. for five days): 60%
necrosis of tumor tissues (MDA-MB-435 xenografts; 4 mg/kg, day 70, H&E staining): greater than 80%
tolerability, drug-related deaths (MDA-MB-435 xenografts; 0.3, 0.8, 4 mg/kg daily i.p. five days): well tolerated and did not result in drug-related deaths
body weight compared to vehicle control (MDA-MB-435 xenografts; mouse, in vivo): no changes in body weight
CC50 (RPMI-8226 leukemia cells): 250 nM
CC50 (UACC-257 melanoma cells): 400 nM
CC50 [1]: 200 nM
early-apoptotic cells (MDA-MB-435 cells): 37%
late-apoptosis/necrosis (MDA-MB-435 cells): 16%
CC50 [2]: 10 nM
